Test results taken from the CheMixHub viscosity set.
“And” between values parts separate entries of the source, which are not always exact repeats. Equal values may be shown once.

Experiment: xn = mol fraction of the nth substance listed

CN(C)C=O + O
Details	viscosity
293.15 K, 101 kPa, x1 = 0.0254	1.471 mPa·s
293.15 K, 101 kPa, x1 = 0.0555	1.784 mPa·s
293.15 K, 101 kPa, x1 = 0.0915	2.173 mPa·s
293.15 K, 101 kPa, x1 = 0.1355	2.435 mPa·s
293.15 K, 101 kPa, x1 = 0.1904	2.755 mPa·s
293.15 K, 101 kPa, x1 = 0.2608	2.969 mPa·s
293.15 K, 101 kPa, x1 = 0.2921	2.981 mPa·s
293.15 K, 101 kPa, x1 = 0.304	3.018 mPa·s
293.15 K, 101 kPa, x1 = 0.3199	2.973 mPa·s
293.15 K, 101 kPa, x1 = 0.3544	2.937 mPa·s
293.15 K, 101 kPa, x1 = 0.4137	2.705 mPa·s
293.15 K, 101 kPa, x1 = 0.4848	2.515 mPa·s
293.15 K, 101 kPa, x1 = 0.5714	2.002 mPa·s
293.15 K, 101 kPa, x1 = 0.6792	1.674 mPa·s
293.15 K, 101 kPa, x1 = 0.8171	1.276 mPa·s
293.15 K, 101 kPa, x2 = 0.1	0.9649 mPa·s and 0.9619 mPa·s
293.15 K, 101 kPa, x2 = 0.2	1.129 mPa·s and 1.125 mPa·s and 1.65 mPa·s
293.15 K, 101 kPa, x2 = 0.3	1.357 mPa·s and 1.351 mPa·s
293.15 K, 101 kPa, x2 = 0.4	1.674 mPa·s and 1.67 mPa·s and 2.25 mPa·s
293.15 K, 101 kPa, x2 = 0.5	2.177 mPa·s and 2.088 mPa·s
293.15 K, 101 kPa, x2 = 0.6	2.564 mPa·s and 2.556 mPa·s
293.15 K, 101 kPa, x2 = 0.7	2.885 mPa·s and 2.875 mPa·s
293.15 K, 101 kPa, x2 = 0.8	2.761 mPa·s and 2.754 mPa·s
293.15 K, 101 kPa, x2 = 0.9	2.019 mPa·s and 2.015 mPa·s
293.15 K, 101 kPa, x2 = 0.92	1.818 mPa·s and 1.813 mPa·s
293.15 K, 101 kPa, x2 = 0.94	1.622 mPa·s and 1.616 mPa·s
293.15 K, 101 kPa, x2 = 0.96	1.408 mPa·s and 1.403 mPa·s
293.15 K, 101 kPa, x2 = 0.98	1.203 mPa·s and 1.2 mPa·s
293.15 K, 101.33 kPa, x1 = 0.0217	1.225 mPa·s
293.15 K, 101.33 kPa, x1 = 0.0466	1.483 mPa·s
293.15 K, 101.33 kPa, x1 = 0.0989	2.011 mPa·s
293.15 K, 101.33 kPa, x1 = 0.1478	2.357 mPa·s
293.15 K, 101.33 kPa, x1 = 0.196	2.65 mPa·s
293.15 K, 101.33 kPa, x1 = 0.2481	2.888 mPa·s
293.15 K, 101.33 kPa, x1 = 0.2859	2.908 mPa·s
293.15 K, 101.33 kPa, x1 = 0.3728	2.707 mPa·s
293.15 K, 101.33 kPa, x1 = 0.4919	2.262 mPa·s
293.15 K, 101.33 kPa, x1 = 0.5936	1.748 mPa·s
293.15 K, 101.33 kPa, x1 = 0.7991	1.184 mPa·s
293.15 K, 101.33 kPa, x1 = 0.8795	1.073 mPa·s
298.15 K, 101 kPa, x2 = 0.1	0.9018 mPa·s and 0.8984 mPa·s
298.15 K, 101 kPa, x2 = 0.3	1.233 mPa·s and 1.232 mPa·s
298.15 K, 101 kPa, x2 = 0.4	1.508 mPa·s and 1.503 mPa·s
298.15 K, 101 kPa, x2 = 0.5	1.853 mPa·s and 1.847 mPa·s
298.15 K, 101 kPa, x2 = 0.6	2.226 mPa·s and 2.225 mPa·s
298.15 K, 101 kPa, x2 = 0.7	2.477 mPa·s and 2.469 mPa·s
298.15 K, 101 kPa, x2 = 0.8	2.345 mPa·s
298.15 K, 101 kPa, x2 = 0.9	1.746 mPa·s and 1.744 mPa·s
298.15 K, 101 kPa, x2 = 0.92	1.583 mPa·s and 1.576 mPa·s
298.15 K, 101 kPa, x2 = 0.94	1.412 mPa·s and 1.408 mPa·s
298.15 K, 101 kPa, x2 = 0.96	1.234 mPa·s
298.15 K, 101 kPa, x2 = 0.98	1.065 mPa·s and 1.063 mPa·s
302.15 K, 101 kPa, x1 = 0.0254	1.266 mPa·s
302.15 K, 101 kPa, x1 = 0.0555	1.535 mPa·s
302.15 K, 101 kPa, x1 = 0.0915	1.856 mPa·s
302.15 K, 101 kPa, x1 = 0.1355	2.071 mPa·s
302.15 K, 101 kPa, x1 = 0.1904	2.333 mPa·s
302.15 K, 101 kPa, x1 = 0.2608	2.542 mPa·s
302.15 K, 101 kPa, x1 = 0.2921	2.58 mPa·s
302.15 K, 101 kPa, x1 = 0.304	2.604 mPa·s
302.15 K, 101 kPa, x1 = 0.3199	2.572 mPa·s
302.15 K, 101 kPa, x1 = 0.3544	2.526 mPa·s
302.15 K, 101 kPa, x1 = 0.4137	2.327 mPa·s
302.15 K, 101 kPa, x1 = 0.4848	2.201 mPa·s
302.15 K, 101 kPa, x1 = 0.5714	1.812 mPa·s
302.15 K, 101 kPa, x1 = 0.6792	1.533 mPa·s
302.15 K, 101 kPa, x1 = 0.8171	1.176 mPa·s
303.15 K, 101 kPa, x2 = 0.1	0.8402 mPa·s and 0.8389 mPa·s
303.15 K, 101 kPa, x2 = 0.2	0.9593 mPa·s and 0.9567 mPa·s
303.15 K, 101 kPa, x2 = 0.3	1.137 mPa·s and 1.122 mPa·s
303.15 K, 101 kPa, x2 = 0.4	1.354 mPa·s and 1.352 mPa·s
303.15 K, 101 kPa, x2 = 0.5	1.641 mPa·s and 1.639 mPa·s
303.15 K, 101 kPa, x2 = 0.6	1.943 mPa·s and 1.939 mPa·s
303.15 K, 101 kPa, x2 = 0.7	2.134 mPa·s and 2.132 mPa·s
303.15 K, 101 kPa, x2 = 0.8	2.026 mPa·s and 2.02 mPa·s
303.15 K, 101 kPa, x2 = 0.9	1.519 mPa·s and 1.516 mPa·s
303.15 K, 101 kPa, x2 = 0.94	1.24 mPa·s and 1.24 mPa·s
303.15 K, 101 kPa, x2 = 0.96	1.093 mPa·s and 1.091 mPa·s
303.15 K, 101 kPa, x2 = 0.98	0.9451 mPa·s and 0.9453 mPa·s
305.15 K, 101 kPa, x1 = 0.0254	1.107 mPa·s
305.15 K, 101 kPa, x1 = 0.0555	1.335 mPa·s
305.15 K, 101 kPa, x1 = 0.0915	1.61 mPa·s
305.15 K, 101 kPa, x1 = 0.1355	1.795 mPa·s
305.15 K, 101 kPa, x1 = 0.1904	2.021 mPa·s
305.15 K, 101 kPa, x1 = 0.2608	2.238 mPa·s
305.15 K, 101 kPa, x1 = 0.2921	2.27 mPa·s
305.15 K, 101 kPa, x1 = 0.304	2.308 mPa·s
305.15 K, 101 kPa, x1 = 0.3199	2.282 mPa·s
305.15 K, 101 kPa, x1 = 0.3544	2.262 mPa·s
305.15 K, 101 kPa, x1 = 0.4137	2.102 mPa·s
305.15 K, 101 kPa, x1 = 0.4848	1.934 mPa·s
305.15 K, 101 kPa, x1 = 0.5714	1.619 mPa·s
305.15 K, 101 kPa, x1 = 0.6792	1.393 mPa·s
305.15 K, 101 kPa, x1 = 0.8171	1.106 mPa·s
308.15 K, 101 kPa, x1 = 0.0254	0.985 mPa·s
308.15 K, 101 kPa, x1 = 0.027	0.9526 mPa·s
308.15 K, 101 kPa, x1 = 0.0555	1.164 mPa·s
308.15 K, 101 kPa, x1 = 0.058	1.163 mPa·s
308.15 K, 101 kPa, x1 = 0.0915	1.428 mPa·s
308.15 K, 101 kPa, x1 = 0.1355	1.583 mPa·s
308.15 K, 101 kPa, x1 = 0.14	1.539 mPa·s
308.15 K, 101 kPa, x1 = 0.1904	1.823 mPa·s
308.15 K, 101 kPa, x1 = 0.2608	1.989 mPa·s
308.15 K, 101 kPa, x1 = 0.2921	1.999 mPa·s
308.15 K, 101 kPa, x1 = 0.304	2.044 mPa·s
308.15 K, 101 kPa, x1 = 0.3199	1.976 mPa·s
308.15 K, 101 kPa, x1 = 0.3544	1.985 mPa·s
308.15 K, 101 kPa, x1 = 0.4137	1.872 mPa·s
308.15 K, 101 kPa, x1 = 0.4848	1.685 mPa·s
308.15 K, 101 kPa, x1 = 0.5714	1.424 mPa·s
308.15 K, 101 kPa, x1 = 0.6792	1.245 mPa·s
308.15 K, 101 kPa, x1 = 0.8171	1.029 mPa·s
308.15 K, 101 kPa, x2 = 0.1	0.7874 mPa·s and 0.7848 mPa·s
308.15 K, 101 kPa, x2 = 0.2	0.8915 mPa·s and 0.8893 mPa·s
308.15 K, 101 kPa, x2 = 0.3	1.036 mPa·s and 1.033 mPa·s
308.15 K, 101 kPa, x2 = 0.4	1.226 mPa·s and 1.224 mPa·s
308.15 K, 101 kPa, x2 = 0.5	1.468 mPa·s and 1.467 mPa·s
308.15 K, 101 kPa, x2 = 0.6	1.707 mPa·s and 1.702 mPa·s
308.15 K, 101 kPa, x2 = 0.7	1.856 mPa·s and 1.856 mPa·s
308.15 K, 101 kPa, x2 = 0.8	1.759 mPa·s and 1.757 mPa·s
308.15 K, 101 kPa, x2 = 0.9	1.335 mPa·s and 1.335 mPa·s
308.15 K, 101 kPa, x2 = 0.92	1.221 mPa·s and 1.22 mPa·s
308.15 K, 101 kPa, x2 = 0.94	1.1 mPa·s and 1.1 mPa·s
308.15 K, 101 kPa, x2 = 0.96	0.9743 mPa·s and 0.9712 mPa·s
308.15 K, 101 kPa, x2 = 0.98	0.8498 mPa·s and 0.8476 mPa·s
313.15 K, 101 kPa, x1 = 0.0254	0.856 mPa·s
313.15 K, 101 kPa, x1 = 0.027	0.8698 mPa·s
313.15 K, 101 kPa, x1 = 0.0555	1.011 mPa·s
313.15 K, 101 kPa, x1 = 0.058	1.067 mPa·s
313.15 K, 101 kPa, x1 = 0.0915	1.284 mPa·s
313.15 K, 101 kPa, x1 = 0.1355	1.433 mPa·s
313.15 K, 101 kPa, x1 = 0.14	1.392 mPa·s
313.15 K, 101.33 kPa, x1 = 0.0217	0.7737 mPa·s
313.15 K, 101.33 kPa, x1 = 0.0466	0.9108 mPa·s
313.15 K, 101.33 kPa, x1 = 0.0989	1.188 mPa·s
313.15 K, 101.33 kPa, x1 = 0.1478	1.404 mPa·s
313.15 K, 101.33 kPa, x1 = 0.2481	1.713 mPa·s
313.15 K, 101.33 kPa, x1 = 0.2859	1.729 mPa·s
313.15 K, 101.33 kPa, x1 = 0.3728	1.586 mPa·s
313.15 K, 101.33 kPa, x1 = 0.4919	1.351 mPa·s
313.15 K, 101.33 kPa, x1 = 0.5936	1.177 mPa·s
313.15 K, 101.33 kPa, x1 = 0.6889	1.005 mPa·s
313.15 K, 101.33 kPa, x1 = 0.7991	0.8768 mPa·s
313.15 K, 101.33 kPa, x1 = 0.8795	0.8096 mPa·s
318.15 K, 101 kPa, x1 = 0.027	0.796 mPa·s
318.15 K, 101 kPa, x1 = 0.058	0.9746 mPa·s
318.15 K, 101 kPa, x1 = 0.14	1.24 mPa·s
323.15 K, 101 kPa, x1 = 0.027	0.7318 mPa·s
323.15 K, 101 kPa, x1 = 0.058	0.8939 mPa·s
323.15 K, 101 kPa, x1 = 0.14	1.096 mPa·s
